In PMC11770808, “Interplay between conformational dynamics and substrate binding regulates enzymatic activity: a single-molecule FRET study” (Chemical Science, 2025):
Like-named read-outs stand apart in the source and are kept apart here.

Biological target: T1, adenylate kinase (AK), wild-type (WT) (Escherichia coli, UniProt P69441)
T1 construct: gene adk; purified recombinant, details only in ESI
Test: microscale thermophoresis
Assay type: binding

T1 sequence (P69441 whole entry): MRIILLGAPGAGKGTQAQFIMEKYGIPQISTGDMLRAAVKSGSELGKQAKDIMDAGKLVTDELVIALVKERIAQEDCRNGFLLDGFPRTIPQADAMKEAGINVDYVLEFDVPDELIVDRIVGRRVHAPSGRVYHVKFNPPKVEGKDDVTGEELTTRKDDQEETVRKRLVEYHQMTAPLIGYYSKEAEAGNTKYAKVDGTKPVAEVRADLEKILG

Row | Kd (read-out: WT) [µM] | Kd (read-out: Kd (AMP)) [µM] | Compound
1 | 159 ± 17 | – | Nc1ncnc2c1ncn2[C@@H]1O[C@H](COP(=O)(O)OP(=O)(O)OP(=O)(O)O)[C@@H](O)[C@H]1O [ATP]
2 | – | 332 ± 40 | Nc1ncnc2c1ncn2[C@@H]1O[C@H](COP(=O)(O)O)[C@@H](O)[C@H]1O [AMP]
